This passage reports inhibition and Ki results from article PMC6274106, “Evaluation and Comparison of the Inhibition Effect of Astragaloside IV and Aglycone Cycloastragenol on Various UDP-Glucuronosyltransferase (UGT) Isoforms” (Molecules, 2016).

As a reminder, the inhibition is the percentage by which the read-out fell short of the control. Low values mean a response near the control, high ones a response far below the control. The term Ki denotes a measure of affinity in units of concentration, obtained from inhibition or displacement.

Common to all, as to assay type: biochemical
For assay [1], the target named is T1, UGT2B7 (Homo sapiens, UniProt P16662).
T1 construct: recombinant human UGT supersomes (baculovirus-infected insect cells)
T1 sequence (P16662 24-529): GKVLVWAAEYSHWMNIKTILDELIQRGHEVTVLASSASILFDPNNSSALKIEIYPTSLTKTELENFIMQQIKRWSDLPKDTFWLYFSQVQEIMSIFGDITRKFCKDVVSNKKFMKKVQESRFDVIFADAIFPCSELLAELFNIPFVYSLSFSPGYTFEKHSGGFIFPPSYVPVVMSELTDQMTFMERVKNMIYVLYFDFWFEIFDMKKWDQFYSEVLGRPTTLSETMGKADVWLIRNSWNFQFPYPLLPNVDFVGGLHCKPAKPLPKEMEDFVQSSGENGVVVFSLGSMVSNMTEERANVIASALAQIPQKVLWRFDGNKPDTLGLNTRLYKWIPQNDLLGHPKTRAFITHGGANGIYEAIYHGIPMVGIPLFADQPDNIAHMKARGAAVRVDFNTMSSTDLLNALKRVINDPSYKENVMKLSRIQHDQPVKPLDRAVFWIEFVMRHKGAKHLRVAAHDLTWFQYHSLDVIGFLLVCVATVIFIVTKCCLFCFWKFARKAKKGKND
As to the kind of experiment: 4-MU glucuronidation screen, […] inhibition at […].

In assay [2] the target is T2, UGT1A3 (Homo sapiens, UniProt P35503).
T2 construct: recombinant human UGT supersomes (baculovirus-infected insect cells)
T2 sequence (P35503 29-534): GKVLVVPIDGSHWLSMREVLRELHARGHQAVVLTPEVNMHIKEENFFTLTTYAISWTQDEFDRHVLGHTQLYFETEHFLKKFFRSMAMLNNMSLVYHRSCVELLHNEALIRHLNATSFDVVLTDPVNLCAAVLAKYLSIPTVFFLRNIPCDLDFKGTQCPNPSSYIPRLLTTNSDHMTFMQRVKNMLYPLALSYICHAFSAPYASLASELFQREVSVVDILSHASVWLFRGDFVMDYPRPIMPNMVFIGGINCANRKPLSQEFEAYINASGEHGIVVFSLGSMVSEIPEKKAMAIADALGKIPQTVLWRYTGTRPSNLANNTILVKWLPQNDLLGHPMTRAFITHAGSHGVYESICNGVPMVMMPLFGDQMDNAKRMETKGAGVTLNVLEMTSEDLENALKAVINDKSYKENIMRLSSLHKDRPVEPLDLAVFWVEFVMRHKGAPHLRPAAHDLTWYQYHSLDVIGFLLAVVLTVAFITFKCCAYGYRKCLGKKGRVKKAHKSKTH
As to the kind of experiment: 4-MU glucuronidation screen, […] inhibition at […].

Assay [3] has as its target T1, UGT2B7. As to the kind of experiment: 4-MU glucuronidation by recombinant UGT supersomes, UPLC-UV; Dixon and Lineweaver-Burk plots (IC50 […]).
Assay [4] addresses T3, UGT1A8 (Homo sapiens, UniProt Q9HAW9).
T3 construct: recombinant human UGT supersomes (baculovirus-infected insect cells)
T3 sequence (Q9HAW9 26-530): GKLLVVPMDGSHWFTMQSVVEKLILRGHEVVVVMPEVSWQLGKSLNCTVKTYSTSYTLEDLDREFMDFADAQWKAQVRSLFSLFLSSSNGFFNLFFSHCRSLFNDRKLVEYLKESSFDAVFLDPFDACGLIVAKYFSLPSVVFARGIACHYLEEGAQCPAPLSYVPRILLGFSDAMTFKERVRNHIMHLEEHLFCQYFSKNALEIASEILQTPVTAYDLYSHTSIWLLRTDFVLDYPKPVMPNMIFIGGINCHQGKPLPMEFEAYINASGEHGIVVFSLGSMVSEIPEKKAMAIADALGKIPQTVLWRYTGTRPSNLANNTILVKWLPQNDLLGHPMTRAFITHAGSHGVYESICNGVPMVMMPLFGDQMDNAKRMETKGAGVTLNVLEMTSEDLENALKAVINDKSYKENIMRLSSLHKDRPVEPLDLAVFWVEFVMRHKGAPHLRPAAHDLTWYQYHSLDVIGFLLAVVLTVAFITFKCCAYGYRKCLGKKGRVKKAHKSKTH
The description is as above.

The target in assay [5] is T4, UGT1A1 (Homo sapiens, UniProt P22309).
T4 construct: recombinant human UGT supersomes (baculovirus-infected insect cells)
T4 sequence (P22309 26-533): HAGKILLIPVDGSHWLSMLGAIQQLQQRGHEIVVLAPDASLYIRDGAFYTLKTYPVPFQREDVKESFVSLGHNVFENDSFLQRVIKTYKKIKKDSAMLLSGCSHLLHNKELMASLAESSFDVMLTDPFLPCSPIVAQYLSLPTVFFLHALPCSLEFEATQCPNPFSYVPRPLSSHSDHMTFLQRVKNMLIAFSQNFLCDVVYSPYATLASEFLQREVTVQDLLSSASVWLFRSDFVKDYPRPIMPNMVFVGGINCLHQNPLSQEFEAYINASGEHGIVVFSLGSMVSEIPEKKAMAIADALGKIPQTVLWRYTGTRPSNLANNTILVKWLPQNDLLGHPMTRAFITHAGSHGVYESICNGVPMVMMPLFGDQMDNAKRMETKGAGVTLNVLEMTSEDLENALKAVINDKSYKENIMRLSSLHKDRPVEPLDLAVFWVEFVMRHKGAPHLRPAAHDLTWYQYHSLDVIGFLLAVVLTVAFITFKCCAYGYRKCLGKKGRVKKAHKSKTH
As to the kind of experiment: 4-MU glucuronidation screen, […] inhibition at […].

Regarding `CC(C)(O)[C@@H]1CC[C@](C)([C@H]2[C@@H](O)C[C@@]3(C)[C@@H]4C[C@H](O[C@@H]5O[C@H](CO)[C@@H](O)[C@H](O)[C@H]5O)[C@H]5C(C)(C)[C@@H](O[C@@H]6OC[C@@H](O)[C@H](O)[C@H]6O)CC[C@@]56C[C@@]46CC[C@]23C)O1` [AST, astragaloside IV], testing at 100 µM in assay [1] gave an inhibition of 51.5%.
Turning to `CC(C)(O)[C@@H]1CC[C@](C)([C@H]2[C@@H](O)C[C@@]3(C)[C@@H]4C[C@H](O)[C@H]5C(C)(C)[C@@H](O)CC[C@@]56C[C@@]46CC[C@]23C)O1` [CAG, cycloastragenol], the inhibition at 100 µM in assay [2] was 75.2%; in assay [5], 50.2%. The Ki in assay [3] stood at 21 µM; in assay [4] it was 0.034 µM.
